Consider 16 compounds from US9273046B2, “Fused tricyclic compounds as Raf kinase inhibitors” (BeiGene, LTD., priority 2011, dated 2016).

The target in one assay is B-Raf (V600E) (Homo sapiens (Human), UniProt P15056, V600E). Kind of assay: Raf IC50 assay, time-resolved fluorescence energy transfer (TR-FRET), B-Raf. To be noted: 0.0625 nM B-Raf, 0.1 mM ATP, GST-tagged MEK1 substrate, 60 min preincubation; read-out: B-Raf (V600E) IC50. The format is biochemical. On the procedure:
The enzyme was incubated with the compounds at room temperature for 60 minutes and the reactions were initiated by the addition of ATP and GST-MEK1. […] Plates were sealed and incubated at room temperature for 2 hours, and then the TR-FRET signals were read on BMG PHERAstar FS instrument. The IC50 for each compound was calculated by non linear regression by Graphpad Prism software.
In general terms: TR-FRET usually uses a lanthanide donor and a delayed reading to cut background.

Another assay deals with C-Raf (Y340D/Y341D) (Homo sapiens (Human), UniProt P04049, Y340D/Y341D). Kind of assay: Raf IC50 assay, time-resolved fluorescence energy transfer (TR-FRET), C-Raf. The format is biochemical. To be noted: 0.5 nM C-Raf, 0.1 mM ATP, GST-tagged MEK1 substrate, 60 min preincubation. The method, then: The assay was carried out in reactions (10 μL) containing 0.0625 nM B-Raf or 0.5 nM C-Raf, 25 mM Tris pH7.4, 10 mM MgCl2, 0.5 mM EGTA, 0.5 mM […], 5 mM beta-glycerophosphate, 0.01% Triton X-100, 2.5 mM DTT, 0.1% BSA, 0.1 mM ATP, 13.7 nM GST-tagged MEK1 (Full-length protein with K97R mutation, recombinant protein purified from bacterial expression system) and 0-5 μM compounds disclosed herein (final concentration of 1% DMSO). The enzyme was incubated with the compounds at room temperature for 60 minutes and the reactions were initiated by the addition of ATP and GST-MEK1. After incubating at room temperature for 60 minutes, an equal volume of stop buffer containing 25 mM Tris pH7.4, 400 mM KF, 50 mM EDTA, 0.01% BSA, 0.01% Triton X-100, 1 test of Eu3+ Cryptate-conjugated rabbit polyclonal antibody anti-Phospho MEK1/2 (Ser217/221) and 1 test of d2-conjugated mouse monoclonal antibody anti-glutathione S-transferase was added to stop the reactions. Plates were sealed and incubated at room temperature for 2 hours, and then the TR-FRET signals were read on BMG PHERAstar FS instrument. The IC50 for each compound was calculated by non linear regression by Graphpad Prism software.
C-Raf (Y340D/Y341D), sequence (P04049 whole entry Y340D/Y341D): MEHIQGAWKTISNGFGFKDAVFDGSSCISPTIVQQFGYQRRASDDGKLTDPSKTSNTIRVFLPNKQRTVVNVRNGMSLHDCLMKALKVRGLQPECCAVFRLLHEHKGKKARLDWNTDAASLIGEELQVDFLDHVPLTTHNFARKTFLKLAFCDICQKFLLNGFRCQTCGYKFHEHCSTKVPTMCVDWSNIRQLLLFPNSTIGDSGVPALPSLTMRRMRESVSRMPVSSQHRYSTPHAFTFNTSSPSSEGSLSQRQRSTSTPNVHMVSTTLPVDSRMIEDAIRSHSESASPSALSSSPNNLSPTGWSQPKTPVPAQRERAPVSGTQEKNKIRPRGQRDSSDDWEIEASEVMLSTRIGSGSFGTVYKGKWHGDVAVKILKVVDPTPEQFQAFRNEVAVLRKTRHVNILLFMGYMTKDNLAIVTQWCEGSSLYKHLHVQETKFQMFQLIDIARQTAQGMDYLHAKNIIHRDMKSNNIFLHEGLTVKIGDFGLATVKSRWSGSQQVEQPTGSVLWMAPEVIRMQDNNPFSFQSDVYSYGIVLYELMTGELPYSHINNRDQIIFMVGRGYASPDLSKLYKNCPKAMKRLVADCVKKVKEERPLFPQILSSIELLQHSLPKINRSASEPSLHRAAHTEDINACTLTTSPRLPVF

B-Raf (V600E), sequence (P15056 whole entry V600E): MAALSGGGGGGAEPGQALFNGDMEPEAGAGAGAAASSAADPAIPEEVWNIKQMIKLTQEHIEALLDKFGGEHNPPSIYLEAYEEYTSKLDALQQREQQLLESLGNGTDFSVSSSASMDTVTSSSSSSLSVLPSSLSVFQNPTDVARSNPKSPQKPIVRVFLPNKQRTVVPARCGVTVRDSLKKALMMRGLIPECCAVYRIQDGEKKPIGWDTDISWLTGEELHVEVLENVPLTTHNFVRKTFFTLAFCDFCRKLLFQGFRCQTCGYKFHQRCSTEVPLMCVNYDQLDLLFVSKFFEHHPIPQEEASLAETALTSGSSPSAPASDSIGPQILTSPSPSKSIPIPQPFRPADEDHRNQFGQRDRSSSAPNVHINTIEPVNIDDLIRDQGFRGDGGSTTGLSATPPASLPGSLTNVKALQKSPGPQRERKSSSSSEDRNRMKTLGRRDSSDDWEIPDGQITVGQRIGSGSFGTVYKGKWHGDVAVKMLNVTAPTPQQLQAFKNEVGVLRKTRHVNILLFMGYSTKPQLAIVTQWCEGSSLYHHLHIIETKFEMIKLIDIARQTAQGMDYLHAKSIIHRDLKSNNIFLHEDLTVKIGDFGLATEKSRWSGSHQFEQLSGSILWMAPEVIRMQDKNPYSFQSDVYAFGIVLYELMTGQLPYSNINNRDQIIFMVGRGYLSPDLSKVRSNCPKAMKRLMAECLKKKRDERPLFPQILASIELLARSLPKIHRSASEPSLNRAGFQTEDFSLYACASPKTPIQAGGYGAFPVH

By IC50 is commonly meant the concentration at which inhibition is half-maximal. With `O=C1CCc2c(Oc3ccc4c(c3)C3C(O4)C3c3nc4cc(F)c(F)cc4[nH]3)ccnc2N1` (centres unmarked) [Compound 2.11], the values for the IC50 on B-Raf (V600E) and against C-Raf (Y340D/Y341D) were 5.9 nM and 3.3 nM, respectively.

On to `O=C1CCc2c(Oc3ccc4c(c3)C3C(O4)C3c3nc4ccc(Cl)cc4[nH]3)ccnc2N1` (centres unmarked) [Compound 2.12], for which the IC50 on B-Raf (V600E) came out at 12 nM; against C-Raf (Y340D/Y341D), 4.1 nM.

For the compound `O=C1CCc2c(Oc3ccc4c(c3)C3C(O4)C3c3nc4ccc(Br)cc4[nH]3)ccnc2N1` (centres unmarked) [Compound 2.13], the IC50 at B-Raf (V600E) came to 7.2 nM; against C-Raf (Y340D/Y341D), 1.7 nM.

Consider `O=C1CCc2c(Oc3ccc4c(c3)C3C(O4)C3c3nc4ccc(OC(F)(F)F)cc4[nH]3)ccnc2N1` (centres unmarked) [Compound 2.14], for which the IC50 was 28 nM on B-Raf (V600E) and 9.7 nM on C-Raf (Y340D/Y341D).

On to `Cn1c(C2C3Oc4ccc(Oc5ccnc6c5CCC(=O)N6)cc4C32)nc2ccccc21` (centres unmarked) [Compound 2.15], for which the IC50 came out at 12 nM at B-Raf (V600E) and 3.6 nM on C-Raf (Y340D/Y341D).

As to `COc1ccc2nc(C3C4Oc5ccc(Oc6ccnc7c6CCC(=O)N7)cc5C43)[nH]c2c1` (centres unmarked) [Compound 2.16], the IC50 on B-Raf (V600E) worked out at 15 nM; at C-Raf (Y340D/Y341D), 3.8 nM.

On to `O=C1CCc2c(Oc3ccc4c(c3)C3C(O4)C3c3nc4cc(Cl)c(F)cc4[nH]3)ccnc2N1` (centres unmarked) [Compound 2.17], for which the figures for the half-maximal inhibitory concentration (IC50) at B-Raf (V600E) and against C-Raf (Y340D/Y341D) were 5.4 nM and 5.9 nM, respectively.

Consider `O=C1CCc2c(Oc3ccc4c(c3)C3C(O4)C3c3nc4cccc(C(F)(F)F)c4[nH]3)ccnc2N1` (centres unmarked) [Compound 2.18], for which the IC50 at B-Raf (V600E) came to 89 nM; on C-Raf (Y340D/Y341D), 6.2 nM.

As for `O=C1CCc2c(Oc3ccc4c(c3)C3C(O4)C3c3nc4cccc(F)c4[nH]3)ccnc2N1` (centres unmarked) [Compound 2.19], the IC50 on B-Raf (V600E) turned out to be 11 nM; against C-Raf (Y340D/Y341D) it was 1.6 nM.

Consider `CC(C)(C)c1ccc2nc(C3C4Oc5ccc(Oc6ccnc7c6CCC(=O)N7)cc5C43)[nH]c2c1` (centres unmarked) [Compound 2.20], for which the IC50 on B-Raf (V600E) is 33 nM; against C-Raf (Y340D/Y341D), 4.4 nM.

As to `NC(=O)c1ccc2nc(C3C4Oc5ccc(Oc6ccnc7c6CCC(=O)N7)cc5C43)[nH]c2c1` (centres unmarked) [Compound 2.22], the IC50 at B-Raf (V600E) amounted to 4 nM; against C-Raf (Y340D/Y341D), 1 nM.

With `Cn1c(C2C3Oc4ccc(Oc5ccnc6c5CCC(=O)N6)cc4C32)nc2ccc(C(F)(F)F)cc21` (centres unmarked) [Compound 2.23], the 50% inhibitory concentration (IC50) at B-Raf (V600E) was found to be 204 nM; against C-Raf (Y340D/Y341D), 35 nM.

Regarding `Cn1c(C2C3Oc4ccc(Oc5ccnc6c5CCC(=O)N6)cc4C32)nc2cc(C(F)(F)F)ccc21` (centres unmarked) [Compound 2.24], the IC50 on B-Raf (V600E) is 47 nM; at C-Raf (Y340D/Y341D) it was 4.3 nM.

Turning to `O=C1CCc2c(Oc3cccc4c3OC3C(c5nc6ccc(C(F)(F)F)cc6[nH]5)C43)ccnc2N1` (centres unmarked) [Compound 2.25], the IC50 turned out to be 849 nM on B-Raf (V600E) and 36 nM against C-Raf (Y340D/Y341D).

As to `O=C1CCc2c(Oc3ccc4c(c3)C3C(O4)C3c3nc(-c4ccncc4)c[nH]3)ccnc2N1` (centres unmarked) [Compound 2.31], the IC50 was found to be 3.7 nM at B-Raf (V600E) and 0.35 nM at C-Raf (Y340D/Y341D).

For the compound `O=C1CCc2c(Oc3ccc4c(c3)C3C(O4)C3c3nc(-c4ccccc4Cl)c[nH]3)ccnc2N1` (centres unmarked) [Compound 2.32], the IC50 at B-Raf (V600E) stood at 3.3 nM; against C-Raf (Y340D/Y341D) it was 0.9 nM.
